Format in all cases: cell-based
Assay [1] has as its system Trichoderma harzianum (carsm-2). Description: Antimicrobial study, diameter of inhibition zone. To be noted: Fungi. The source says: (§1) Two gram-positive Staphylococcus aureus (cars-2) and Bacillus Megnaterium, two gram-negative Escherichia coli (carsgn-2) and Salmonella Typhi (JCM-1652) bacteria, and two fungal strains Trichoderma harzianum (carsm-2) and Aspergillus niger (carsm-3) were used in this study.

The subject of assay [2] is Aspergillus niger (carsm-3). Description: Antimicrobial study, diameter of inhibition zone. The conditions noted are these: Fungi.
Excerpt: as §1

Assay [3] deals with Bacillus Megnaterium. Description: Antimicrobial study, diameter of inhibition zone. The conditions noted are these: for Diameter of inhibition zones, B. megnaterium: Gram (+) bacteria. The procedure: (§2) Initially, compound L was tested against some Gram-negative and Gram-positive bacteria and the fungus strain.
as §1

Assay [4] concerns Salmonella Typhi (JCM-1652). Description: Antimicrobial study, diameter of inhibition zone. The conditions noted are these: for Diameter of inhibition zones, S. typhi: Gram (−) bacteria. The procedure:
as §2, §1

For assay [5], the system named is Staphylococcus aureus (cars-2). Description: Antimicrobial study, diameter of inhibition zone. To be noted: for Diameter of inhibition zones, S. aureus: Gram (+) bacteria. The protocol: as §2, §1
The test system of assay [6] is Escherichia coli (carsgn-2). Description: Antimicrobial study, diameter of inhibition zone. The conditions noted are these: for Diameter of inhibition zones, E. coli: Gram (−) bacteria. The protocol: as §2, §1
Assay [7] concerns lung cancer (A549). Description: MTT in vitro cytotoxicity assay. The conditions noted are these: Homo sapiens, lung cancer cells, MTT 72 h. The protocol: (§3) Two human cancer cell lines were utilized in the cytotoxicity assay. They were lung cancer (A549) and hepatocellular carcinoma (HepG2). A549 and HepG2 cells were cultured in a DMEM medium supplemented with 10% Fetal Bovine Serum (FBS), and 1% Antibiotic-Antimycotic at 37° C., with 5% CO2 in a 75 cm^2 tissue culture flask.
(§4) The conversion of yellow MTT to purple formazan crystals by mitochondrial dehydrogenase of viable cell enzymes was used to assess the magnitude of cellular cytotoxicity exerted by different concentrations of L as explained earlier Kazi et al. 2023 and modified by Kumar et al. 2022. Briefly, cancer cells were plated in 96-well plates (2×10^3 cells/well) in full cell growth medium and incubated for 24 h at 37° C. under a humidified atmosphere of 5% CO2. The cell medium was then replaced by a cell growth medium containing 5% FBS (DMEM medium), containing different concentrations of L. This experiment was performed in two batches. In the first batch, concentrations of L were 1.95, 3.9, 7.8, 15.6, 31.25, 62.5, 125 and 250 μg/ml with control (without any treatment). In the second batch, concentrations of L were 0.078, 0.156, 0.312, 0.625, 1.25, 2.5, 5.0, and 10.0 μg/mL with control (without any treatment). After 72 hours of incubation, medium in all test and control wells was substituted by 100 µL/well of MTT solution (0.5 mg/mL, in PBS) and incubated for a further 3 h at 37° C. Afterwards, the MTT solution was replaced with 100 μL isopropanol/well to dissolve the purple formazan crystals formed at the bottom of the wells, with shaking for at least 2 h at room temperature in dark. Subsequently, the color intensity in the wells was measured at 549 nm with a Bio-Tek microplate reader (ELX 800; Bio-Tek Instruments, Winooski, VT, USA). The results were analyzed in triplicates and the viability percentage was calculated. The data are presented as the percentages of viable cells in the test wells compared to those of the control group. The following equation was used to calculate the cell viability: […]
(§5) Liver and lung cancer cell lines were used to observe the antiproliferative effects of different concentrations of L as a growth-inhibiting study utilizing MTT-based viability assays. The MTT assay is based on mitochondrial activity. […] The results of both batches are admirable and far better than earlier reported publications. Therefore, we repeated this experiment with lung cancer cell lines and found almost similar results (FIGS. 9 and 10) as were with liver cancer cells.

Assay [8] concerns hepatocellular carcinoma (HepG2). Description: MTT in vitro cytotoxicity assay. The conditions noted are these: Homo sapiens, read-out: % cell viability. The procedure: as §3, §4, §5

With `C[C@@H]1[C@H](O)[C@@H](C)/C=C/C=C/C=C/C=C/C=C/C=C/C=C/[C@H](O[C@@H]2O[C@H](C)[C@@H](O)[C@H](N)[C@@H]2O)C[C@@H]2O[C@](O)(C[C@@H](O)C[C@@H](O)[C@H](O)CC[C@@H](O)C[C@@H](O)CC(=O)O[C@H]1C)C[C@H](O)[C@H]2C(=O)O` [Amphotericin-B, reference compound], the “Diameter of inhibition zones, T. harzianum” value in assay [1] was 17.0 mm. Moreover, the “Diameter of inhibition zones, A. niger” value in assay [2] is on record as 8.0 mm.

For `CO/N=C(\C(=O)N[C@@H]1C(=O)N2C(C(=O)O)=C(CSc3nc(=O)c(=O)[nH]n3C)CS[C@H]12)c1csc(N)n1` [Ceftriaxone, reference compound], in assay [3], the “Diameter of inhibition zones, B. megnaterium” value amounted to 50.0 mm. Also, in assay [4], the “Diameter of inhibition zones, S. typhi” value amounted to 44.0 mm. For the same compound, the “Diameter of inhibition zones, S. aureus” value in assay [5] amounted to 40.0 mm. For the same compound, the “Diameter of inhibition zones, E. coli” value in assay [6] was found to be 38.0 mm.

In the case of `C/C(=N\NC(=O)c1cc(Br)ccc1O)c1ccccn1` [Compound L, 5-bromo-2-hydroxy-N′-[(1E)-1-(pyridin-2-yl)ethylidene]benzohydrazide], the viability at 0.078 µg/mL in assay [7] (0.078 μg/mL, FIG. 4, read-out: % cell viability) was 18.6%; in assay [8] (HepG2, 72 h), 34.4%. Further, the viability at 0.156 µg/mL in assay [7] (0.156 μg/mL, FIG. 4, read-out: % cell viability) turned out to be 13.2%; in assay [8] (HepG2, liver cancer cells, 0.156 μg/mL, MTT 72 h, FIG. 2) it was 24.4%. For the same compound, the viability at 0.312 µg/mL in assay [7] (0.312 μg/mL, FIG. 4, read-out: % cell viability) came to 12.8%; in assay [8] (HepG2, liver cancer cells, 0.312 μg/mL, MTT 72 h, FIG. 2) it was 28%. In addition, the viability at 0.625 µg/mL in assay [7] (0.625 μg/mL, FIG. 4, read-out: % cell viability) was 12.3%; in assay [8] (HepG2, liver cancer cells, 0.625 μg/mL, MTT 72 h, FIG. 2), 20.3%. The viability at 1.25 µg/mL was 12.1% in assay [7] (1.25 μg/mL, FIG. 4, read-out: % cell viability) and 20.2% in assay [8] (HepG2, liver cancer cells, 1.25 μg/mL, MTT 72 h, FIG. 2). Also, the viability at 1.95 µg/mL in assay [7] (1.95 μg/mL, FIG. 5, read-out: % cell viability) came out at 18%; in assay [8] (HepG2, 72 h), 14.8%. Further, the viability at 2.5 µg/mL in assay [7] (2.5 μg/mL, FIG. 4, read-out: % cell viability) was determined as 11.7%; in assay [8] (HepG2, liver cancer cells, 2.5 μg/mL, MTT 72 h, FIG. 2) it was 12.7%. Moreover, the viability at 3.9 µg/mL worked out at 16.7% in assay [7] (3.9 μg/mL, FIG. 5, read-out: % cell viability) and 12.2% in assay [8] (HepG2, liver cancer cells, 3.9 μg/mL, MTT 72 h, FIG. 3). The viability at 5 µg/mL is 11% in assay [7] (5.0 μg/mL, FIG. 4, read-out: % cell viability) and 10.9% in assay [8] (HepG2, liver cancer cells, 5.0 μg/mL, MTT 72 h, FIG. 2). The viability at 7.8 µg/mL in assay [7] (7.8 μg/mL, FIG. 5, read-out: % cell viability) stood at 12.5%; in assay [8] (HepG2, liver cancer cells, 7.8 μg/mL, MTT 72 h, FIG. 3) it was 9.57%. In addition, the viability at 10 µg/mL came to 11.1% in assay [7] (10.0 μg/mL, FIG. 4, read-out: % cell viability) and 10.4% in assay [8] (HepG2, liver cancer cells, 10.0 μg/mL, MTT 72 h, FIG. 2). Also, the viability at 15.6 µg/mL came to 11.8% in assay [7] (15.6 μg/mL, FIG. 5, read-out: % cell viability) and 8.96% in assay [8] (HepG2, liver cancer cells, 15.6 μg/mL, MTT 72 h, FIG. 3). The viability at 31.25 µg/mL was determined as 11.7% in assay [7] (31.25 μg/mL, FIG. 5, read-out: % cell viability) and 9.09% in assay [8] (HepG2, liver cancer cells, 31.25 μg/mL, MTT 72 h, FIG. 3). Further, the viability at 62.5 µg/mL in assay [7] (62.5 μg/mL, FIG. 5, read-out: % cell viability) was 11.4%; in assay [8] (HepG2, liver cancer cells, 62.5 μg/mL, MTT 72 h, FIG. 3) it was 8.86%. For the same compound, the viability at 125 µg/mL in assay [7] (125 μg/mL, FIG. 5, read-out: % cell viability) was determined as 11.6%; in assay [8] (HepG2, liver cancer cells, 125 μg/mL, MTT 72 h, FIG. 3) it was 9.34%. In addition, the viability at 250 µg/mL in assay [7] (250 μg/mL, FIG. 5, read-out: % cell viability) amounted to 11.6%; in assay [8] (HepG2, liver cancer cells, 250 μg/mL, MTT 72 h, FIG. 3), 9.38%. The “Diameter of inhibition zones, T. harzianum” value in assay [1] is 12 mm. Further, the “Diameter of inhibition zones, A. niger” value in assay [2] was 12 mm. Besides, the “Diameter of inhibition zone” value in assay [3] (Bacillus Megaterium) came out at 20 mm; in assay [4] (Salmonella typhi), 26 mm; in assay [5] (Staphylococcus aureus) it was 24 mm; in assay [6] (Escherichia coli), 17 mm. Further, in assay [3], the “Diameter of inhibition zones, B. megnaterium” value was 20 mm. For the same compound, in assay [4], the “Diameter of inhibition zones, S. typhi” value turned out to be 26 mm. Further, the “Diameter of inhibition zones, S. aureus” value in assay [5] amounted to 24 mm. Further, the “Diameter of inhibition zones, E. coli” value in assay [6] came out at 17 mm.

The values are drawn from patent US20250282726A1, “5-BROMO-2-HYDROXY-N'-[(1E)-1-(PYRIDIN-2-YL) ETHYLIDENE]BENZOHYDRAZIDE AS AN ANTI-CANCER AND ANTIMICROBIAL AGENT” (KING SAUD UNIVERSITY, priority 2024, published 2025).
